≈ marks a conversion by molar mass, not a printed value.
How the values were obtained:
in vitro = format: cell-based, human; conditions: human dermal fibroblasts, 48 h + 24 h resazurin; read-out: HDF CC50
Method: (§1) HDFs were purchased from ATCC (Manassas, VA). HDF cells were cultured in DMEM (Lonza) media supplemented with 10.0% fetal bovine serum (Lonza) and penicillin/streptomycin (Lonza). For the cytotoxicity assay, compound stocks were serially diluted in phosphate-buffered saline plus 10.0% DMSO. On the day of assay, HDF cells were trypsinized, counted, and resuspended at a concentration of 64 000 cells/mL in media. Cells were plated, overlaid with the compound serial dilutions, and incubated at 37.0 °C. After 48.0 h, resazurin dye was added, and the assay plates cultured for another 24.0 h. On the next day, the absorbance of the resazurin was measured on a microplate reader to assess cell death. Cytotoxicity was determined as a percent control, and CC50 values for each compound were determined by utilizing eq 1.

Mtb mc^2 7000 = assay: Antimycobacterial assay (MABA); format: cell-based; conditions: Mycobacterium tuberculosis, Mtb mc^2 7000, MABA, 6 days + 2 days resazurin
MtbAdoK [1] = target: T1, MtbAdoK (Mycobacterium tuberculosis, UniProt P9WID5); assay: MtbAdoK enzymatic assay (pyruvate kinase–lactate dehydrogenase coupled), IC50 and Ki determination; format: biochemical
T1 sequence (P9WID5 whole entry, looked up): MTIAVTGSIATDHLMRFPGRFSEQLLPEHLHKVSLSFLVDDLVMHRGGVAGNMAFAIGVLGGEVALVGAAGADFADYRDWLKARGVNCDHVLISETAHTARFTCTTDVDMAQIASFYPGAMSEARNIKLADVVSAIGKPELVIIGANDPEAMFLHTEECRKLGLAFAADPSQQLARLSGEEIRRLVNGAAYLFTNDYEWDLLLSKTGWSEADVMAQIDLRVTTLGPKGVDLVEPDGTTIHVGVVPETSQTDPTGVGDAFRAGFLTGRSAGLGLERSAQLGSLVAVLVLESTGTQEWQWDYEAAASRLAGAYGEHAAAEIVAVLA

MtbAdoK [2] = target: T1, MtbAdoK; conditions: read-out: Km for adenosine, previously reported values; cited from earlier work
MtbAdoK [3] = target: T1, MtbAdoK; assay: Steady-state kinetics of MtbAdoK; conditions: versus adenosine
[4] = format: in vivo; conditions: female Swiss Webster mice, single oral dose 10 mg·kg^–1
Method: (§2) Eight-week old female ND4 Swiss Webster mice (∼28 g each) (Envigo, Indianapolis, IN) were used for PK and combination tolerability-snapshot PK studies. Compound 18 was formulated in 5% DMSO, 95% canola oil and administered as a single 100 μL oral gavage at 10 mg·kg^–1 for PK and as a 200 μL oral gavage at 50, 100, or 200 mg·kg^–1 QD × 3 days for tolerability-snapshot PK. Mice were anesthetized using isoflurane and 50 μL collected at 0, 0.25, 0.5, 1, 2, and 4 h survival bleed times for traditional PK or 0, 1, 4, and 24 h for tolerability-snapshot PK studies after the first administered dose. Around 200 μL was collected at 6, 8, and 24 h terminal bleed times for the traditional PK. Survival bleeds were drawn from the facial vein and terminal bleeds via cardiac puncture following CO2 asphyxiation.[35] Three mice were used per time point.

[5] = system: human dermal fibroblasts (HDF); assay: in vitro; format: cell-based; conditions: HDF cells
Method: as §1

in vivo = assay: in vivo; parameters: species or system Swiss Webster mice; conditions: female, ND4 Swiss Webster, mouse, po
Method: as §2
Blood samples were centrifuged (3000g, 15 min) for plasma separation. Aliquots of plasma (10 μL) were extracted with two 500 μL equivalents of methanol containing 0.1% formic acid to ensure maximum recovery of compound 18 from plasma. The supernatant was collected from precipitated protein pellet following centrifugation (3000g, 5 min) and evaporated to dryness using a temperature-controlled Eppendorf Vacufuge at 30 °C for 4 h. The dry samples were reconstituted with 100 μL of methanol (1:10 original analyte dilution factor) spiked with 250 ng·mL^–1 verapamil (Sigma-Aldrich) as an internal standard and subjected to LC/MS analysis on a Bruker Daltronics micrOTOF-Q II mass spectrometer coupled with an Agilent 1200 Infinity series HPLC with temperature controlled autosampler (24 °C) and photodiode array detector. Standard solutions of compound 18 ranging from 1000 to 7.8125 ng·mL^–1 spiked into mouse control plasma was also analyzed to generate a calibration curve corrected for matrix effects. A linear regression generated from calibration samples was used to quantify samples.[34] The LOD of the LC/MS method was approximately 2 ng·mL^–1. A 4.6 × 100 mm Kinetex 2.6 μm EVO C18 100 Å column at a flow rate of 0.5 mL·min^–1 was used in the analysis. The mobile phase consisted of water containing 0.1% formic acid as solvent A and acetonitrile with 0.1% formic acid as solvent B. The gradient conditions were maintained as follows: 90% A, 10% B to 100% B in 8 min; 100% held for 4 min as a washing step; 100% B back to 90% A in 2 min; 90% A, 10% B held for 3 min to reset and equilibrate the column. Each analytical run was automatically calibrated using a secondary line injection of 10 μL of sodium acetate external standard at 13 min. The injection volume of the analyte was 10 μL, and MS was operated in positive mode with electrospray ionization at source. Mass spectra were monitored in a range of 50–1000m/z. Data were processed using DataAnalysis 4.1 and QuantAnalysis (Bruker Daltronics).

hAdoK = target: T2, hAdoK (Homo sapiens, UniProt P55263); assay: hAdoK enzymatic assay (pyruvate kinase–lactate dehydrogenase coupled), Ki determination; format: biochemical
T2 construct: His-tag with Tobacco Etch Virus (TEV) cleavage site (N); made in house; host or cells: Escherichia coli BL21 (DE3)
T2 sequence (P55263 1-345 isoform P55263-2): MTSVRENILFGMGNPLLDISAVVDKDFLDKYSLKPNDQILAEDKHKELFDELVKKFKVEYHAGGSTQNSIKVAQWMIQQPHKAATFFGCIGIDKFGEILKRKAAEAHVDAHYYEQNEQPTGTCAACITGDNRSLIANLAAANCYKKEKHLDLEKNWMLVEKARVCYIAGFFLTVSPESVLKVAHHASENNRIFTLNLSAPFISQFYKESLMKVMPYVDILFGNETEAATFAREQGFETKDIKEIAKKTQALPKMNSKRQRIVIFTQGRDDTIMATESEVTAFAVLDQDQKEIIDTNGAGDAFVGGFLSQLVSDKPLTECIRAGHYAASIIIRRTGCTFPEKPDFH

Mtb H37Rv WT = assay: microbe, parasite or virus in culture; format: cell-based; conditions: Mycobacterium tuberculosis

Question: With OC[C@H]1O[C@@H](n2cnc3c(-c4ccsc4)ncnc32)[C@H](O)[C@@H]1O [Compound 6] as the compound, how does the CC50 (in vitro) read?
Answer: > 100 µM

Question: What about the EC50 (Mtb mc^2 7000) of the same compound?
Answer: 25.6 ± 2.4 µM

Question: What about the IC50 (MtbAdoK [1]; 15.0 μM adenosine, 60 nM enzyme) of the same compound?
Answer: 0.197 ± 0.0203 µM

Question: And the “increase in potency when compared with compounds 2 and 4” value (MtbAdoK [1]; MtbAdoK IC50 ratio)?
Answer: ~10 ×

Question: For Nc1ncnc2c1ncn2[C@@H]1O[C@H](CO)[C@@H](O)[C@H]1O [Compound 1, adenosine], which Km (MtbAdoK [2]) is on record?
Answer: 0.8 to 3.4 µM

Question: Which results are given for OC[C@H]1O[C@@H](n2cnc3c(N4CCN(c5ccc(-c6ccccc6)cc5)CC4)ncnc32)[C@H](O)[C@@H]1O [Compound 18, (2R,3R,4S,5R)-2-(6-(4-([1,1′-Biphenyl]-4-yl)piperazin-1-yl)-9H-purin-9-yl)-5-(hydroxymethyl)tetrahydrofuran-3,4-diol]?
Answer: mode of inhibition (MtbAdoK [3]): competitive; tolerability [4]: well tolerated; cytotoxicity (in words) [5]: no cytotoxicity; AUC(0-t) (in vivo; 10 mg/kg): 1800 ng·h/mL; Cmax (in vivo; 10 mg/kg): 130 ± 20 ng/mL; Tmax (in vivo; 10 mg/kg): ~4 h; AUC (in vivo; 50 mg/kg): 9800 ng·h/mL; Tmax (in vivo; 50 mg/kg): ~4 h; AUC (in vivo; 100 mg/kg): 15300 ng·h/mL; Tmax (in vivo; 100 mg/kg): ~4 h; AUC (in vivo; 200 mg/kg): 23200 ng·h/mL; Tmax (in vivo; 200 mg/kg): ~4 h; activity against hAdoK (in words) (hAdoK): no activity against hAdoK; Ki (hAdoK; Cheng–Prusoff, ± SD of 2 experiments): > 50 µM; EC50 (Mtb mc^2 7000; 192 h): ~4 µM; EC50 (Mtb mc^2 7000): 4 ± 0.2 µM; Ki (MtbAdoK [1]; Cheng–Prusoff for competitive inhibition, 15.0 μM adenosine, ± SD of 2 experiments): 0.0053 ± 7e-05 µM

Question: With Nc1ncnc2c1c(I)cn2[C@@H]1O[C@H](CO)[C@@H](O)[C@H]1O [Compound 2, Iodotubercidin] as the compound, how does the MIC (Mtb H37Rv WT) read?
Answer: 18 ± 10 µM (≈ 7.06 µg/mL)
